Assay results as given in ChEMBL document CHEMBL4007390, “Design, synthesis and biological evaluation of indolin-2-one-based derivatives as potent, selective and efficacious inhibitors of FMS-like tyrosine kinase3 (FLT3)” (Eur J Med Chem, 2017).
Active and inactive are the calls of the source. No cut-off for these calls is given here.

Test system: MV4-11
Experiment: Antiproliferative activity against human MV4-11 cells harboring FLT3 ITD mutant after 72 hrs by MTS assay
Type: functional, cell-based
Details: MV4-11, 72 h

| Compound | IC50 [µM] |
| --- | --- |
| Cc1[nH]c(/C=C2\C(=O)Nc3ccc(F)cc32)c(C)c1NC(=O)CCNC1CCCC1 | 0.055 |
| CCCN(CCC)CCC(=O)Nc1c(C)[nH]c(/C=C2\C(=O)Nc3ccc(F)cc32)c1C | 0.142 |
| Cc1[nH]c(/C=C2\C(=O)Nc3ccc(F)cc32)c(C)c1NC(=O)CN1CCN(C)CC1 | 0.0385 |
| Cc1[nH]c(/C=C2\C(=O)Nc3ccc(F)cc32)c(C)c1NC(=O)CNC1CCCCC1 | > 0.2 |
| CCCN(CCC)CC(=O)Nc1c(C)[nH]c(/C=C2\C(=O)Nc3ccc(F)cc32)c1C | > 0.2 |
| Cc1[nH]c(/C=C2\C(=O)Nc3ccc(F)cc32)c(C)c1NC(=O)C1CCNCC1 | 0.0147 |
| CCN(CC)CCNC(=O)c1c(C)[nH]c(/C=C2\C(=O)Nc3ccc(F)cc32)c1C [SUNITINIB] | 0.0385 |
| Cc1[nH]c(/C=C2\C(=O)Nc3ccc(F)cc32)c(C)c1NC(=O)CCN1CCCC1 | 0.02 |
| Cc1[nH]c(/C=C2\C(=O)Nc3ccc(F)cc32)c(C)c1NC(=O)CN1CCCC1 | 0.0744 |
| Cc1[nH]c(/C=C2\C(=O)Nc3ccc(F)cc32)c(C)c1NC(=O)CCNC1CCCCC1 | 0.119 |
| CCCNCCC(=O)Nc1c(C)[nH]c(/C=C2\C(=O)Nc3ccc(F)cc32)c1C | 0.0394 |
| Cc1[nH]c(/C=C2\C(=O)Nc3ccc(F)cc32)c(C)c1NC(=O)CN1CCOCC1 | 0.0661 |
| Cc1[nH]c(/C=C2\C(=O)Nc3ccc(F)cc32)c(C)c1NC(=O)CCN1CCN(C)CC1 | 0.0453 |
| CCNCCC(=O)Nc1c(C)[nH]c(/C=C2\C(=O)Nc3ccc(F)cc32)c1C | 0.0257 |
| Cc1[nH]c(/C=C2\C(=O)Nc3ccc(F)cc32)c(C)c1NC(=O)CNC1CCCC1 | 0.0899 |
| Cc1[nH]c(/C=C2\C(=O)Nc3ccc(F)cc32)c(C)c1NC(=O)C1CCCCN1 (stereo not drawn) | 0.0356 |
| Cc1[nH]c(/C=C2\C(=O)Nc3ccc(F)cc32)c(C)c1NC(=O)CN1CCNCC1 | 0.0171 |

| Compound | IC50 [µM] |
| --- | --- |
| Cc1[nH]c(/C=C2\C(=O)Nc3ccc(F)cc32)c(C)c1NC(=O)CN(C)C | 0.0475 |
| Cc1[nH]c(/C=C2\C(=O)Nc3ccc(F)cc32)c(C)c1NC(=O)CCN1CCOCC1 | 0.0607 |
| CCN(CC)CC(=O)Nc1c(C)[nH]c(/C=C2\C(=O)Nc3ccc(F)cc32)c1C | > 0.2 |
| Cc1[nH]c(/C=C2\C(=O)Nc3ccc(F)cc32)c(C)c1NC(=O)CCNC(C)(C)C | 0.0303 |
| CCN(CC)CCC(=O)Nc1c(C)[nH]c(/C=C2\C(=O)Nc3ccc(F)cc32)c1C | 0.0365 |
| Cc1[nH]c(/C=C2\C(=O)Nc3ccc(F)cc32)c(C)c1NC(=O)[C@@H]1CCCN1 | 0.0414 |
| CCCNCC(=O)Nc1c(C)[nH]c(/C=C2\C(=O)Nc3ccc(F)cc32)c1C | 0.0678 |
| Cc1[nH]c(/C=C2\C(=O)Nc3ccc(F)cc32)c(C)c1NC(=O)CCN1CCNCC1 | 0.0392 |
| Cc1[nH]c(/C=C2\C(=O)Nc3ccc(F)cc32)c(C)c1NC(=O)CNC(C)(C)C | 0.158 |
| CCCCNCCC(=O)Nc1c(C)[nH]c(/C=C2\C(=O)Nc3ccc(F)cc32)c1C | 0.0734 |
| CCCCNCC(=O)Nc1c(C)[nH]c(/C=C2\C(=O)Nc3ccc(F)cc32)c1C | > 0.2 |
| Cc1[nH]c(/C=C2\C(=O)Nc3ccc(F)cc32)c(C)c1NC(=O)CCN(C)C | 0.0271 |
| Cc1[nH]c(/C=C2\C(=O)Nc3ccc(F)cc32)c(C)c1NC(=O)CCN1CCCCC1 | 0.0337 |
| CCNCC(=O)Nc1c(C)[nH]c(/C=C2\C(=O)Nc3ccc(F)cc32)c1C | 0.0438 |
| Cc1[nH]c(/C=C2\C(=O)Nc3ccc(F)cc32)c(C)c1NC(=O)C1CCCNC1 (stereo not drawn) | 0.0241 |
| Cc1[nH]c(/C=C2\C(=O)Nc3ccc(F)cc32)c(C)c1NC(=O)CN1CCCCC1 | > 0.2 |

Test system: MV4-11
Experiment: Antitumor activity against human MV4-11 cells xenografted in Harlan nude mouse assessed as tumor growth inhibition administered orally measured after 1 week
Type: functional, cell-based
Details: not given

| Compound | TGI |
| --- | --- |
| Cc1[nH]c(/C=C2\C(=O)Nc3ccc(F)cc32)c(C)c1NC(=O)C1CCNCC1 | inactive |

Test system: not listed separately
Experiment: Toxicity in Harlan nude mouse xenografted with human MV4-11 cells administered ig qd for 20 days
Details: in vivo, po

| Compound | MTD at 480 h [mg/kg/day] |
| --- | --- |
| CCN(CC)CCNC(=O)c1c(C)[nH]c(/C=C2\C(=O)Nc3ccc(F)cc32)c1C [SUNITINIB] | 80 |

Test system: MV4-11
Experiment: Antitumor activity against human MV4-11 cells xenografted in Harlan nude mouse assessed as tumor growth inhibition administered ig qd for 20 days
Type: functional
Details: MV4-11, po, 480 h, read-out: MED

| Compound | minimal effective dose [mg/kg/day] |
| --- | --- |
| CCN(CC)CCNC(=O)c1c(C)[nH]c(/C=C2\C(=O)Nc3ccc(F)cc32)c1C [SUNITINIB] | 10 |

Test system: not listed separately
Experiment: Inhibition of human FLT3 ITD mutant
Details: not given

| Compound | IC50 [µM] |
| --- | --- |
| CCN(CC)CCNC(=O)c1c(C)[nH]c(/C=C2\C(=O)Nc3ccc(F)cc32)c1C [SUNITINIB] | 0.0014 |

Test system: MV4-11
Experiment: Antitumor activity against human MV4-11 cells xenografted in Harlan nude mouse assessed as tumor growth inhibition at 10 mg/kg, ig qd for 20 days relative to control
Type: functional
Details: MV4-11, po, 480 h, read-out: TGI

| Compound | inhibition in vivo at 10 mg/kg [%] |
| --- | --- |
| CCN(CC)CCNC(=O)c1c(C)[nH]c(/C=C2\C(=O)Nc3ccc(F)cc32)c1C [SUNITINIB] | 81 |
